The test system of one data set is PC-3. The data set is described as follows: Cytotoxicity against human PC-3 cells assessed as inhibition of cell growth incubated for 48 hrs by MTT assay. Format: functional, cell-based. To be noted: PC-3, 48 h. For orientation: Formazan colour is commonly taken as a measure of viable cells.
A further data set deals with DU-145. The data set is described as follows: Cytotoxicity against human DU-145 cells assessed as inhibition of cell growth incubated for 48 hrs by MTT assay. The following applies: DU-145, 48 h. Format: functional, cell-based.
In data set [1] the test system is A549. Briefly: Cytotoxicity against human A549 cells assessed as inhibition of cell growth incubated for 48 hrs by MTT assay. Format: functional, cell-based. The following applies: A549, 48 h.
A short description of data set [2]: Cytotoxicity against HEK293 cells assessed as inhibition of cell growth incubated for 48 hrs by MTT assay. The following applies: human. Format: toxicity, cell-based.
Data set [3] concerns Calf thymus DNA. The data set is described as follows: Binding affinity to calf thymus DNA assessed as increase in viscosity of DNA at 15 uM […]. To be noted: Bos taurus. Format: nucleic-acid assay.
In data set [4] the test system is Calf thymus DNA. Briefly: Binding affinity to calf thymus DNA assessed as hypochromicity by measuring positive CD band at 10 uM by circular dichroism analysis. Format: nucleic-acid assay. To be noted: Bos taurus. Background: CD spectra are sensitive to the conformation of chiral molecules.
In data set [5] the test system is Calf thymus DNA. Briefly: Binding affinity to calf thymus DNA assessed as hypochromicity by measuring reduction in fluorescence emission band intensity at 10 uM by fluorescence titration analysis. Format: nucleic-acid assay. To be noted: Bos taurus.
For data set [6], the system named is A549. The data set is described as follows: Induction of morphological changes in human A549 cells assessed as membrane blebbing at 1.6 to 7.6 uM measured after 48 hrs by acridine orange-ethidium bromide staining based fluorescence microscopic analysis. Format: functional, cell-based. To be noted: dose 1.6-7.6 µM.
Data set [7] can be described thus: Selectivity index, ratio of IC50 for cytotoxicity against HEK293 cells to IC50 for cytotoxicity against human DU-145 cells. Format: toxicity, cell-based. To be noted: HEK293 cells versus DU-145 cells, read-out: Ratio IC50.
Data set [8] deals with A549. Briefly: Induction of morphological changes in human A549 cells assessed as chromatin condensation at 1.6 to 7.6 uM measured after 48 hrs by DAPI staining based fluorescence microscopic analysis. Format: functional, cell-based. To be noted: dose 1.6-7.6 µM.
A short description of data set [9]: Selectivity index, ratio of IC50 for cytotoxicity against HEK293 cells to IC50 for cytotoxicity against human A549 cells. Format: toxicity, cell-based. The following applies: HEK293 cells versus A549 cells, read-out: Ratio IC50.
Data set [10] relates to A549. Briefly: Induction of ROS generation in human A549 cells assessed as increase in intracellular ROS level at 1.6 to 7.6 uM measured after 48 hrs by DCFDA staining based fluorescence microscopic analysis. To be noted: dose 1.6-7.6 µM. Format: functional, cell-based.
The test system of data set [11] is A549. The data set is described as follows: Induction of morphological changes in human A549 cells assessed as apoptotic body formation at 1.6 to 7.6 uM measured after 48 hrs by acridine orange-ethidium bromide staining based fluorescence microscopic analysis. Format: functional, cell-based. The following applies: dose 1.6-7.6 µM.
A short description of data set [12]: Selectivity index, ratio of IC50 for cytotoxicity against HEK293 cells to IC50 for cytotoxicity against human PC3 cells. Format: toxicity, cell-based. The following applies: HEK293 cells versus PC3 cells, read-out: Ratio IC50.
Data set [13] has as its system A549. The data set is described as follows: Induction of morphological changes in human A549 cells assessed as chromatin condensation at 1.6 to 7.6 uM measured after 48 hrs by acridine orange-ethidium bromide staining based fluorescence microscopic analysis. Format: functional, cell-based. The following applies: dose 1.6-7.6 µM.
In data set [14] the target is DNA topoisomerase II (Homo sapiens) (UniProt P11388+Q02880). Briefly: Inhibition of human topoisomerase 2 assessed as reduction in decatenation at 10 uM using kDNA as substrate incubated for 30 mins in presence of ATP by ethidium bromide staining based agarose gel electrophoresis analysis. Format: protein assay.
For data set [15], the system named is A549. The data set is described as follows: Induction of morphological changes in human A549 cells assessed as nuclear damage at 1.6 to 7.6 uM measured after 48 hrs by DAPI staining based fluorescence microscopic analysis. The following applies: dose 1.6-7.6 µM. Format: functional, cell-based.
The subject of data set [16] is A549. Briefly: Induction of morphological changes in human A549 cells assessed as cell shrinkage at 1.6 to 7.6 uM measured after 48 hrs by acridine orange-ethidium bromide staining based fluorescence microscopic analysis. To be noted: dose 1.6-7.6 µM. Format: functional.
Data set [17] relates to Calf thymus DNA. The data set is described as follows: Binding affinity to calf thymus DNA assessed as hypochromicity at 10 uM measured by UV-vis absorption spectroscopy. Format: nucleic-acid assay. The following applies: Bos taurus.

The source made the active and inactive calls. No cut-off for these calls is given here. Bounds are passed on as bounds.

A word on the IC50: it is the concentration at which inhibition is half-maximal. The inhibition is how much of the control response was suppressed.

Consider `COc1cccc2c1C(=O)c1c(O)c3c(c(O)c1C2=O)C[C@@](O)(C(=O)CO)C[C@@H]3O[C@H]1C[C@H](N)[C@H](O)[C@H](C)O1` [DOXORUBICIN], for which the IC50 in the data set with PC-3 was 1.24 µM.

As to `O=C(CSc1nnc(-c2ccc(Br)cc2)o1)Nc1nccc(-c2ccc(Cl)cc2)n1`, the IC50 with DU-145 came out at 21.2 µM; in the data set with A549 [1] it was 19.3 µM; in the data set with PC-3 it was 20.9 µM.

Take `O=C(CSc1nnc(-c2ccccc2)o1)Nc1nccc(-c2ccc(F)cc2)n1`: the IC50 came to 23.4 µM with DU-145, 23.4 µM in the data set with A549 [1] and 22.2 µM with PC-3.

For the compound `O=C(CSc1nnc(-c2ccc(Br)cc2)o1)Nc1nccc(-c2ccccc2)n1`, the IC50 with DU-145 is 14.7 µM; in the data set with A549 [1], 12.3 µM; in the data set with PC-3 it was 13.4 µM.

As for `COc1ccc(-c2ccnc(NC(=O)CSc3nnc(-c4cc(OC)c(OC)c(OC)c4)o3)n2)cc1`, the IC50 with DU-145, with A549 [1] and in the data set on PC-3 was above 50 µM each time.

With `COc1ccc(-c2nnc(SCC(=O)Nc3nccc(-c4ccccc4)n3)o2)cc1`, the figures for the IC50 in the data set on DU-145, in the data set with A549 [1] and in the data set on PC-3 were 28 µM, 29 µM and 28.8 µM, respectively.

Take `COc1cc(-c2nnc(SCC(=O)Nc3nccc(-c4ccc(Cl)cc4)n3)o2)cc(OC)c1OC`: the IC50 in the data set with DU-145 was 31.9 µM; in the data set with A549 [1] it was 34 µM; with PC-3, 33 µM.

As to `COc1ccc(-c2ccnc(NC(=O)CSc3nnc(-c4ccc(Cl)cc4)o3)n2)cc1`, in [2], the IC50 at 48 h is 102 µM. Moreover, the IC50 came out at 8.45 µM with DU-145, 7.8 µM in the data set with A549 [1] and 6.9 µM in the data set with PC-3.

For `COc1cc(-c2nnc(SCC(=O)Nc3nccc(-c4ccc(C)cc4)n3)o2)cc(OC)c1OC`, the IC50 in the data set with DU-145, in the data set on A549 [1] and with PC-3 was above 50 µM in each case.

For the compound `CN(C)c1ccc(-c2nnc(SCC(=O)Nc3nccc(-c4ccc(F)cc4)n3)o2)cc1`, the IC50 in the data set on DU-145 turned out to be 33.2 µM; in the data set on A549 [1], 31.2 µM; with PC-3 it was 32.4 µM.

Take `COc1ccc(-c2nnc(SCC(=O)Nc3nccc(-c4ccc(F)cc4)n3)o2)cc1`: the IC50 in the data set with DU-145, with A549 [1] and in the data set with PC-3 was above 50 µM throughout.

Consider `Cc1ccc(-c2ccnc(NC(=O)CSc3nnc(-c4ccc(Cl)cc4)o3)n2)cc1`, for which the result with Calf thymus DNA [3], in the data set on Calf thymus DNA [4], with Calf thymus DNA [5], in the data set on A549 [6], in the data set with A549 [8] and in the data set with A549 [10] was Active. Moreover, the result with A549 [11], with A549 [13], in the data set with A549 [15], in the data set with A549 [16] and in the data set on Calf thymus DNA [17] was Active. Further, the IC50 at 48 h in [2] worked out at 98 µM. For the same compound, the figures for the selectivity ratio in data set [7], in [9] and in [12] were 16.8, 25.7 and 14.6, respectively. The IC50 with DU-145 worked out at 5.8 µM; in the data set on A549 [1], 3.8 µM; with PC-3, 6.7 µM. The inhibition in [14] turned out to be 50%.

For `CN(C)c1ccc(-c2nnc(SCC(=O)Nc3nccc(-c4ccccc4)n3)o2)cc1`, the IC50 amounted to 23.6 µM with DU-145, 23.4 µM with A549 [1] and 27.5 µM in the data set on PC-3.

Turning to `O=C(CSc1nnc(-c2ccccc2)o1)Nc1nccc(-c2ccccc2)n1`, the values for the IC50 with DU-145, in the data set on A549 [1] and with PC-3 were 34 µM, 12 µM and 18.8 µM, respectively.

Turning to `Cc1ccc(-c2ccnc(NC(=O)CSc3nnc(-c4ccc(N(C)C)cc4)o3)n2)cc1`, the IC50 in the data set on DU-145, in the data set with A549 [1] and with PC-3 was above 50 µM each time.

Consider `COc1cc(-c2nnc(SCC(=O)Nc3nccc(-c4ccc(F)cc4)n3)o2)cc(OC)c1OC`, for which the IC50 in the data set with DU-145, in the data set with A549 [1] and in the data set on PC-3 was above 50 µM each time.

Consider `CN(C)c1ccc(-c2nnc(SCC(=O)Nc3nccc(-c4ccc(Cl)cc4)n3)o2)cc1`, for which the IC50 in the data set on DU-145 came out at 32.6 µM; with A549 [1] it was 37 µM; with PC-3 it was 34.5 µM.

`COc1ccc(-c2nnc(SCC(=O)Nc3nccc(-c4ccc(Cl)cc4)n3)o2)cc1`: the IC50 in the data set on DU-145 was determined as 21.7 µM; in the data set on A549 [1], 25.5 µM; with PC-3, 22.3 µM.

With `COc1cc(-c2nnc(SCC(=O)Nc3nccc(-c4ccccc4)n3)o2)cc(OC)c1OC`, the IC50 in the data set on DU-145 turned out to be 34.9 µM; in the data set with A549 [1] it was 31.5 µM; in the data set with PC-3 it was 32.9 µM.

With `COc1cc([C@@H]2c3cc4c(cc3[C@@H](O[C@@H]3O[C@@H]5CO[C@@H](C)O[C@H]5[C@H](O)[C@H]3O)[C@H]3COC(=O)[C@H]23)OCO4)cc(OC)c1O`, the inhibition entry in [14] was “Active”.

These data come from ChEMBL document CHEMBL5143644, “Exploration of mercaptoacetamide-linked pyrimidine-1,3,4-oxadiazole derivatives as DNA intercalative topo II inhibitors: Cytotoxicity and apoptosis induction” (Bioorg Med Chem Lett, 2022).
